Experimental data from patent US11485725B2, “Derivatives of piperlongumine and uses thereof” (Auransa Inc., priority 2017, dated 2022).
Where two headings read alike, the source gives them in different places.

Columns and labels:
MOLP-8 = assay: In vitro cell viability assay (CellTiter-Glo, ATP levels), multiple myeloma cells; type: cell-based; conditions: 7-day incubation, CellTiter-Glo, average values, read-out: MOLP-8 IC50
Experimental: (§1) In Vitro Cell Viability Assay
(§2) The present disclosure provides a method for inhibiting cell viability, as measured by ATP levels. The method for inhibiting cell viability is drawn to contacting various cancer cells with the compounds described herein at various concentrations. The cancer cell lines were maintained in culture conditions at 37° C. in an atmosphere of 5% CO2 in air. The cells growing in an exponential growth phase were harvested and counted for plating. Compounds were incubated in two cancer cell types representing multiple myeloma (MOLP-8) and triple negative breast cancer (DU4475). Cells were plated at an optimized cell numbers per well in 96-well plates and allowed to attach to the plates overnight at approximately 80% confluency.
(§3) After addition of compounds, plates were incubated for 7-day. At the end of incubation period on day 8, media was removed and replaced with a solution of CellTiter-Glo™ reagent (Promega®) according to protocol. Luminescence was read using an EnVision® multi-label plate reader (Perkin-Elmer®), and signal intensity was calculated relative to positive and negative control wells. Cisplatin was included as the positive control. A dose-response calculation was performed in a non-linear regression fit and by using the Hill equation to calculate a concentration-response curve and 50% inhibitory concentration (IC50) values for each compound.
(§4) The average IC50 values of compounds 1-15 in multiple myeloma (MOLP-8) and triple negative breast cancer (DU4475) cells are shown in Table 1.

DU4475 = assay: In vitro cell viability assay (CellTiter-Glo, ATP levels), triple negative breast cancer cells; type: cell-based; conditions: read-out: DU4475 IC50
Experimental: as §1, §2, §3, §4

[1] = system: HCT116 (colorectal cancer) cells; assay: Resazurin-based cell viability assay using colorectal cancer cells
Experimental: Determination of Potency of Compounds in Cell Viability Assay Using Colorectal Cancer Cells
The blue dye resazurin-based assay was performed to determine cell viability and used according to manufacture protocol (Sigma®). HCT116 (colorectal cancer) cells were seeded in the DMEM medium (10% FBS serum). Approximately 1,500 cells were plated per well in 96 well plates. Cells were allowed to grow at 37° C. for 24 hr in 5% CO2 environment in a humidified incubator. Serially diluted compounds (100 μL) were added to the culture plate after 24 hr. After addition of compounds, plates were incubated for 72 hr. Experiment was terminated at the designated incubation time by replacing the medium with 100 μL of 1 mM of resazurin (Sigma®) prepared in culture medium (DMEM) and were further incubated in culture conditions for 4-6 hours. Fluorescence was recorded using a multimodal plate reader (Biotek Synergy Neo®) at an excitation wavelength of 535 nm and emission wavelength of 590 nm to obtain relative fluorescence units. Data analysis was done by subtracting the background fluorescence (medium blank) value from each reading and then normalizing with the vehicle control (DMSO treated cells) to obtain percent survival/proliferation. IC50 was calculated from percent survival values using GraphPad Prism® (see Table 1).

[2] = Homo sapiens, DU-4475, 168 h, 7-day incubation, CellTiter-Glo, average values
[3] = Homo sapiens, HCT-116, 72 hr incubation

O=C1C=CCCCN1C(=O)/C=C/c1ccc2ccccc2n1 [Compound 15, (E)-1-(3-(quinolin-2-yl)acryloyl)-1,5,6,7-tetrahydro-2H-azepin-2-one]
IC50 (MOLP-8; Homo sapiens, MOLP-8, 168 h): 500 nM | IC50 (DU4475; [2]): 500 nM | IC50 [1, 3]: 880 nM

O=C1C=CCCN1C(=O)/C=C/c1ccc2c(n1)OCCO2 [Compound 23, (E)-1-(3-(2,3-dihydro-[1,4]dioxino[2,3-b]pyridin-6-yl)acryloyl)-5,6-dihydropyridin-2(1H)-one]
IC50 (MOLP-8): 700 nM | IC50 (DU4475; 7-day incubation, CellTiter-Glo, average values): 500 nM | IC50 ([1]; 72 hr incubation, read-out: HCT 116 IC50): 3160 nM

O=C1C=CCCN1C(=O)/C=C/c1cnc2c(c1)OCCO2 [Compound 24, (E)-1-(3-(2,3-dihydro-[1,4]dioxino[2,3-b]pyridin-7-yl)acryloyl)-5,6-dihydropyridin-2(1H)-one]
IC50 (MOLP-8; Homo sapiens, MOLP-8, 168 h): 320 nM | IC50 (DU4475; [2]): 680 nM | IC50 [1, 3]: 1900 nM

Cn1cc(/C=C(/C(=O)N2CCC=CC2=O)c2ccccc2)cn1 [Compound 83, 1-[(2E)-3-(1-methyl-1H-pyrazol-4-yl)-2-phenylprop-2-enoyl]-5,6-dihydropyridin-2(1H)-one]
IC50 (MOLP-8; Homo sapiens, MOLP-8, 168 h): 2750 nM | IC50 (DU4475; [2]): 4840 nM | IC50 [1, 3]: 11100 nM

O=C1C=CCCCN1C(=O)/C=C/c1cncc2ccccc12 [Compound 12, (E)-1-(3-(isoquinolin-4-yl)acryloyl)-1,5,6,7-tetrahydro-2H-azepin-2-one]
IC50 (MOLP-8; Homo sapiens, MOLP-8, 168 h): 890 nM | IC50 (DU4475; [2]): 600 nM | IC50 [1, 3]: 960 nM

O=C1C=CCCN1C(=O)/C=C/c1cnn(C2CC2)c1 [Compound 86, (E)-1-(3-(1-cyclopropyl-1H-pyrazol-4-yl)acryloyl)-5,6-dihydropyridin-2(1H)-one]
IC50 (MOLP-8; Homo sapiens, MOLP-8, 168 h): 850 nM | IC50 (DU4475; [2]): 1670 nM | IC50 [1, 3]: 3830 nM

O=C1C=CCCCN1C(=O)/C=C/c1ccccn1 [Compound 8, (E)-1-(3-(pyridin-2-yl)acryloyl)-1,5,6,7-tetrahydro-2H-azepin-2-one]
IC50 (MOLP-8; Homo sapiens, MOLP-8, 168 h): 410 nM | IC50 (DU4475; [2]): 500 nM | IC50 [1, 3]: 1500 nM

O=C1C=CCCN1C(=O)C=C1c2ccccc2-c2ccccc21 [Compound 10, 1-(2-(9H-fluoren-9-ylidene)acetyl)-5,6-dihydropyridin-2(1H)-one]
IC50 (MOLP-8; Homo sapiens, MOLP-8, 168 h): 2120 nM | IC50 (DU4475; [2]): 950 nM | IC50 [1, 3]: 1900 nM

Cn1cc(/C=C(\C(=O)N2CCC=CC2=O)c2ccccc2)cn1 [Compound 84, (Z)-1-(3-(1-methyl-1H-pyrazol-4-yl)-2-phenylacryloyl)-5,6-dihydropyridin-2(1H)-one]
IC50 (MOLP-8; Homo sapiens, MOLP-8, 168 h): 1550 nM | IC50 (DU4475; [2]): 1630 nM | IC50 [1, 3]: 3710 nM

O=C1C=CCCN1C(=O)/C=C/C1CCCCC1 [Compound 2, (E)-1-(3-cyclohexylacryloyl)-5,6-dihydropyridin-2(1H)-one]
IC50 (MOLP-8; Homo sapiens, MOLP-8, 168 h): 1050 nM | IC50 (DU4475; [2]): 950 nM | IC50 [1, 3]: 2600 nM

O=C1C=CCCCN1C(=O)/C=C/c1ncccn1 [Compound 13, (E)-1-(3-(pyrimidin-2-yl)acryloyl)-1,5,6,7-tetrahydro-2H-azepin-2-one]
IC50 (MOLP-8; Homo sapiens, MOLP-8, 168 h): 510 nM | IC50 (DU4475; [2]): 670 nM | IC50 [1, 3]: 1300 nM

Cc1noc(/C=C/C(=O)N2CCC=CC2=O)n1 [Compound 16, (E)-1-(3-(3-methyl-1,2,4-oxadiazol-5-yl)acryloyl)-5,6-dihydropyridin-2(1H)-one]
IC50 (MOLP-8; Homo sapiens, MOLP-8, 168 h): 660 nM | IC50 (DU4475; [2]): 750 nM | IC50 [1, 3]: 960 nM

O=C1C=CCCCN1C(=O)/C=C/c1ccc2c(n1)OCCO2 [Compound 31, (E)-1-(3-(2,3-dihydro-[1,4]dioxino[2,3-b]pyridin-6-yl)acryloyl)-1,5,6,7-tetrahydroazepin-2-one]
IC50 (MOLP-8; Homo sapiens, MOLP-8, 168 h): 270 nM | IC50 (DU4475; [2]): 560 nM | IC50 [1, 3]: 1550 nM

C/C(=C\C1CCN(CC2CC2)CC1)C(=O)N1CCC=CC1=O [Compound 77, (E)-1-(3-(1-(cyclopropylmethyl)piperidin-4-yl)-2-methylacryloyl)-5,6-dihydropyridin-2(1H)-one]
IC50 (MOLP-8; Homo sapiens, MOLP-8, 168 h): 3340 nM | IC50 (DU4475; [2]): 5440 nM | IC50 [1, 3]: 7500 nM

O=C1C=CC(O)CN1C(=O)/C=C/c1ncccn1 (stereo not drawn) [Compound 32, 5-hydroxy-1-[(2E)-3-(pyrimidin-2-yl)prop-2-enoyl]-5,6-dihydropyridin-2(1H)-one]
IC50 (MOLP-8; Homo sapiens, MOLP-8, 168 h): 380 nM | IC50 (DU4475; [2]): 1490 nM | IC50 [1, 3]: 7200 nM

C/C(=C/C1CCNCC1)C(=O)N1CCC=CC1=O [Compound 87, (Z)-1-(2-methyl-3-(piperidin-4-yl)acryloyl)-5,6-dihydropyridin-2(1H)-one 2,2,2-trifluoroacetate]
IC50 (MOLP-8; Homo sapiens, MOLP-8, 168 h): 3660 nM | IC50 (DU4475; [2]): 5530 nM | IC50 [1, 3]: 10100 nM

O=C(/C=C/c1ncccn1)N1CCC=C(Cl)C1=O [Compound 35, (E)-3-chloro-1-(3-(pyrimidin-2-yl)acryloyl)-5,6-dihydropyridin-2(1H)-one]
IC50 (MOLP-8; Homo sapiens, MOLP-8, 168 h): 80 nM | IC50 (DU4475; [2]): 210 nM | IC50 [1, 3]: 380 nM

COc1cc(/C=C(\C)C(=O)N2CCC=CC2=O)cc2c1OCCO2 [Compound 55, 1-[(2E)-3-(8-methoxy-2,3-dihydro-1,4-benzodioxin-6-yl)-2-methylprop-2-enoyl]-5,6-dihydropyridin-2(1H)-one]
IC50 (MOLP-8; Homo sapiens, MOLP-8, 168 h): 580 nM | IC50 (DU4475; [2]): 830 nM | IC50 [1, 3]: 1960 nM

Cn1cc(/C=C/C(=O)N2CC(C)(C)C=CC2=O)cn1 [Compound 85, (E)-5,5-dimethyl-1-(3-(1-methyl-1H-pyrazol-4-yl)acryloyl)-5,6-dihydropyridin-2(1H)-one]
IC50 (MOLP-8; Homo sapiens, MOLP-8, 168 h): 4600 nM | IC50 (DU4475; [2]): 6790 nM | IC50 [1, 3]: 31000 nM

O=C1C=CCCN1C(=O)/C=C/C1CCN(c2ncccn2)CC1 [Compound 67, 1-{(2E)-3-[1-(pyrimidin-2-yl)piperidin-4-yl]prop-2-enoyl}-5,6-dihydropyridin-2(1H)-one]
IC50 (MOLP-8; Homo sapiens, MOLP-8, 168 h): 760 nM | IC50 (DU4475; [2]): 960 nM | IC50 [1, 3]: 3400 nM

CC(C)(C)OC(=O)N1CCC(/C=C(/C(=O)N2CCC=CC2=O)c2ccccc2)CC1 [Compound 91, (E)-tert-butyl 4-(3-oxo-3-(2-oxo-5,6-dihydropyridin-1(2H)-yl)-2-phenylprop-1-enyl)piperidine-1-carboxylate]
IC50 (MOLP-8; Homo sapiens, MOLP-8, 168 h): 3200 nM | IC50 (DU4475; Homo sapiens, DU-4475, 168 h): 4140 nM | IC50 [1, 3]: 9160 nM

O=C1C=CCCN1C(=O)/C=C/c1ccc2c(n1)OCCO2 [Compound 21, (E)-1-(3-(2,3-dihydro-[1,4]dioxino[2,3-b]pyridin-6-yl)acryloyl)-5,6-dihydropyridin-2(1H)-one]
IC50 (MOLP-8; Homo sapiens, MOLP-8, 168 h): 680 nM | IC50 (DU4475; [2]): 530 nM | IC50 [1, 3]: 3160 nM

C/C(=C/C1CCN(C(=O)OC(C)(C)C)CC1)C(=O)N1CCC=CC1=O [Compound 71, (Z)-tert-butyl 4-(2-methyl-3-oxo-3-(2-oxo-5,6-dihydropyridin-1(2H)-yl)prop-1-enyl)piperidine-1-carboxylate]
IC50 (MOLP-8; Homo sapiens, MOLP-8, 168 h): 3910 nM | IC50 (DU4475; [2]): 4670 nM | IC50 [1, 3]: 13600 nM

O=C1C=CCCN1C(=O)/C=C/c1cnn(CC(F)(F)F)c1 [Compound 90, 1 11-{(2E)-3-[1-(2,2,2-trifluoroethyl)-1H-pyrazol-4-yl]prop-2-enoyl}-5,6-dihydropyridin-2(1H)-one]
IC50 (MOLP-8; Homo sapiens, MOLP-8, 168 h): 440 nM | IC50 (DU4475; [2]): 1470 nM | IC50 [1, 3]: 7070 nM

CC(=O)N1CCC(/C=C/C(=O)N2CCC=CC2=O)CC1 [Compound 9, (E)-1-(3-(1-acetylpiperidin-4-yl)acryloyl)-5,6-dihydropyridin-2(1H)-one]
IC50 (MOLP-8; Homo sapiens, MOLP-8, 168 h): 970 nM | IC50 (DU4475; [2]): 920 nM | IC50 [1, 3]: 5700 nM

Cn1cc(/C=C/S(=O)(=O)N2CCC=CC2=O)cn1 [Compound 75, 1-{[(E)-2-(1-methyl-1H-pyrazol-4-yl)ethenyl]sulfonyl}-5,6-dihydropyridin-2(1H)-one]
IC50 (MOLP-8; Homo sapiens, MOLP-8, 168 h): 860 nM | IC50 (DU4475; [2]): 1600 nM | IC50 [1, 3]: 4620 nM
